Laboratory results taken from paper PMC5740388, “In Vitro Antibacterial Properties of Cefiderocol, a Novel Siderophore Cephalosporin, against Gram-Negative Bacteria” (Antimicrobial Agents and Chemotherapy, 2017).
≈ marks a conversion by molar mass, not a printed value. Read-outs that look alike come from different tables or passages of the source.

Tests used:
[1] = molecular target: T1, PBP2 of A. baumannii ATCC 17978 (Acinetobacter baumannii, UniProt D0C8Z9); experiment: competition with Bocillin FL for PBPs; assay type: binding; conditions: covalent
T1 construct: gene mrdA
T1 sequence (D0C8Z9 1-672): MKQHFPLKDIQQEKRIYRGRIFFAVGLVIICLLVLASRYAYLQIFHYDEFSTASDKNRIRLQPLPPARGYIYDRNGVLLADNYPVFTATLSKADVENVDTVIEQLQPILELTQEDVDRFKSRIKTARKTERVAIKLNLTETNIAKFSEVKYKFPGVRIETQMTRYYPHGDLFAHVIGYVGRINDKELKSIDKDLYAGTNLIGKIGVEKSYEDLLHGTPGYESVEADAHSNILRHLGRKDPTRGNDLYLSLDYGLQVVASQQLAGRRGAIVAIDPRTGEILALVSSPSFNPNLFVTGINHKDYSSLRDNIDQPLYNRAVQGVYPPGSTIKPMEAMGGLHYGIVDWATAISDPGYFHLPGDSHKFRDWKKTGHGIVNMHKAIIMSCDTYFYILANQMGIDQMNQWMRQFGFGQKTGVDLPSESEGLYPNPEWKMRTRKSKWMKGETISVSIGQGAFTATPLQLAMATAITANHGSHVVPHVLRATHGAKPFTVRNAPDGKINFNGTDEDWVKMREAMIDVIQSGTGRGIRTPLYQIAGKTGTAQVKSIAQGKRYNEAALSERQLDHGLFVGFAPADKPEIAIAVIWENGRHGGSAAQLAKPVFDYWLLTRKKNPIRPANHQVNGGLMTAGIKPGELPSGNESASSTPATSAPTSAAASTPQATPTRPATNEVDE
Source text: competition with Bocillin FL for PBPs on PBP2 of A. baumannii ATCC 17978

[2] = molecular target: T2, PBP1a of E. coli NIHJ JC-2 (Escherichia coli, UniProt P02918); experiment: competition with […]benzylpenicillin for PBPs; assay type: binding; conditions: covalent
T2 construct: gene mrcA

[3] = molecular target: T3, PBP2 of E. coli NIHJ JC-2 (Escherichia coli, UniProt P0AD65); experiment: competition with […]benzylpenicillin for PBPs; assay type: binding; conditions: covalent
T3 construct: gene mrdA
T3 sequence (P0AD65 1-633): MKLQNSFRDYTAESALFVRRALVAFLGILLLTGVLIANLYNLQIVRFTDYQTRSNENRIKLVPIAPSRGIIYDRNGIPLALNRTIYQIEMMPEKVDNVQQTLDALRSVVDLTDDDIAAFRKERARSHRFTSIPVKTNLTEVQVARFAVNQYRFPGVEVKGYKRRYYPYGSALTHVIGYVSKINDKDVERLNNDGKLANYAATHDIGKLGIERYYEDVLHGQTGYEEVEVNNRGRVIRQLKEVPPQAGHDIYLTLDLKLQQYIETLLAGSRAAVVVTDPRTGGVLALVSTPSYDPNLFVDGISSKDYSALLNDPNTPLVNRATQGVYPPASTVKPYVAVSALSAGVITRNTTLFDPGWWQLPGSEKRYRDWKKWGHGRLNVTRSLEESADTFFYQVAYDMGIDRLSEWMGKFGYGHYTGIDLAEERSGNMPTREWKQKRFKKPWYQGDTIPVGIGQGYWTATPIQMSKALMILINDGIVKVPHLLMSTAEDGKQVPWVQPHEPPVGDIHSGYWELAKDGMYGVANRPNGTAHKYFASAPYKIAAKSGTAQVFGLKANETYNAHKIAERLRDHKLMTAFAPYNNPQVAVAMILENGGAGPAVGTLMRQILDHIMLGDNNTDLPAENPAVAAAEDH

[4] = molecular target: T4, PBP1a of P. aeruginosa ATCC 27853 (Pseudomonas aeruginosa, UniProt Q07806); experiment: competition with […]benzylpenicillin for PBPs; assay type: binding; conditions: covalent
T4 construct: gene mrcA

[5] = molecular target: T5, PBP3 of A. baumannii ATCC 17978 (Acinetobacter baumannii, UniProt A0ABX6CK25); experiment: competition with Bocillin FL for PBPs; assay type: binding; conditions: covalent
T5 construct: gene ftsI
T5 sequence (A0ABX6CK25 1-610): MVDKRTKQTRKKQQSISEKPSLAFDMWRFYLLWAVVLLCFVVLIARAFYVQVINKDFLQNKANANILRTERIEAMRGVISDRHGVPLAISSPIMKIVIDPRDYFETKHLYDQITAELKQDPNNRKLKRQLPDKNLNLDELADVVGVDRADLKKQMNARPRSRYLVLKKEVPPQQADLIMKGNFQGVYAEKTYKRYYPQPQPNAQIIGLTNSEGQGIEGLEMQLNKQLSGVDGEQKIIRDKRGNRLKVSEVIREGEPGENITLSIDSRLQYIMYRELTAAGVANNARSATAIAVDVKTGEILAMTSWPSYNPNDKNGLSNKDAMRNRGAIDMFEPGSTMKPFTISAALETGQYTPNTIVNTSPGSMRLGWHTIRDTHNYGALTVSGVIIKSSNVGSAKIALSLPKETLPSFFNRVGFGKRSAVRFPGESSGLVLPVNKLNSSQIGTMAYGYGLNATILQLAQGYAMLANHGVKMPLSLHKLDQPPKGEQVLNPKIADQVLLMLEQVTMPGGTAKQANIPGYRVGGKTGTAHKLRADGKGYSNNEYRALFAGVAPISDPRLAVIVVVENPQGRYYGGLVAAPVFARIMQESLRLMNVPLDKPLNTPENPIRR
Source text: competition with Bocillin FL for PBPs on PBP3 of A. baumannii ATCC 17978

[6] = test system: T6, PBP1a and PBP1b of A. baumannii ATCC 17978 (not separated); experiment: competition with Bocillin FL for PBPs; assay type: binding, Acinetobacter baumannii; conditions: covalent; joint value for PBP1a and PBP1b
T6 construct: gene ponA; one joint IC50 for PBP1a and PBP1b
Source text: competition with Bocillin FL for PBPs on PBP1a and PBP1b of A. baumannii ATCC 17978 (not separated)

[7] = read-out: IC50 (μg/ml) / A. baumannii ATCC 17978 ^a / Cefiderocol (converted)
[8] = read-out: IC50 (μg/ml) / E. coli NIHJ JC-2 / Cefiderocol (converted)
[9] = read-out: IC50 (μg/ml) / E. coli NIHJ JC-2 / Ceftazidime

T4 sequence (Q07806 whole entry): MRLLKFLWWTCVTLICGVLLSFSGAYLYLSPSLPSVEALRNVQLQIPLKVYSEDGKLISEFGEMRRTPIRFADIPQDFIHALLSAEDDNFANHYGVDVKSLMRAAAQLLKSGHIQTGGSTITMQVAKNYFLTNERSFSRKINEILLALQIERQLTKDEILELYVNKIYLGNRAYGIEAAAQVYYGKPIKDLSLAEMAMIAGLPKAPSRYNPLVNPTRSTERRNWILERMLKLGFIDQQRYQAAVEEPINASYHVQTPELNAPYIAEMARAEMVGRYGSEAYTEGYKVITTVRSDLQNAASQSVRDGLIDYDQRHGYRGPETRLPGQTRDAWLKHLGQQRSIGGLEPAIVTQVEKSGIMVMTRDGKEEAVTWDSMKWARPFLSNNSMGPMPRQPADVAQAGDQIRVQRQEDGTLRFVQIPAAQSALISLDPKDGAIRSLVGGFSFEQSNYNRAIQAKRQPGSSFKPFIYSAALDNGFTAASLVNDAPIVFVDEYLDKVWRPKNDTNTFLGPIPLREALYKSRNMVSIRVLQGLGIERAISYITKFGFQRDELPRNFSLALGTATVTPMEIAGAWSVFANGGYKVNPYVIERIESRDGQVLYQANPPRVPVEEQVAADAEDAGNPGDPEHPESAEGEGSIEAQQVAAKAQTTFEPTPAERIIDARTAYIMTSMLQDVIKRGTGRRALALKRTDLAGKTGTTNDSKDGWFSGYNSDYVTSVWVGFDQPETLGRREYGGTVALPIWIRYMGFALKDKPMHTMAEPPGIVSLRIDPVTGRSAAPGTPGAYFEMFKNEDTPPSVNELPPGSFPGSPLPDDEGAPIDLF
T2 sequence (P02918 whole entry): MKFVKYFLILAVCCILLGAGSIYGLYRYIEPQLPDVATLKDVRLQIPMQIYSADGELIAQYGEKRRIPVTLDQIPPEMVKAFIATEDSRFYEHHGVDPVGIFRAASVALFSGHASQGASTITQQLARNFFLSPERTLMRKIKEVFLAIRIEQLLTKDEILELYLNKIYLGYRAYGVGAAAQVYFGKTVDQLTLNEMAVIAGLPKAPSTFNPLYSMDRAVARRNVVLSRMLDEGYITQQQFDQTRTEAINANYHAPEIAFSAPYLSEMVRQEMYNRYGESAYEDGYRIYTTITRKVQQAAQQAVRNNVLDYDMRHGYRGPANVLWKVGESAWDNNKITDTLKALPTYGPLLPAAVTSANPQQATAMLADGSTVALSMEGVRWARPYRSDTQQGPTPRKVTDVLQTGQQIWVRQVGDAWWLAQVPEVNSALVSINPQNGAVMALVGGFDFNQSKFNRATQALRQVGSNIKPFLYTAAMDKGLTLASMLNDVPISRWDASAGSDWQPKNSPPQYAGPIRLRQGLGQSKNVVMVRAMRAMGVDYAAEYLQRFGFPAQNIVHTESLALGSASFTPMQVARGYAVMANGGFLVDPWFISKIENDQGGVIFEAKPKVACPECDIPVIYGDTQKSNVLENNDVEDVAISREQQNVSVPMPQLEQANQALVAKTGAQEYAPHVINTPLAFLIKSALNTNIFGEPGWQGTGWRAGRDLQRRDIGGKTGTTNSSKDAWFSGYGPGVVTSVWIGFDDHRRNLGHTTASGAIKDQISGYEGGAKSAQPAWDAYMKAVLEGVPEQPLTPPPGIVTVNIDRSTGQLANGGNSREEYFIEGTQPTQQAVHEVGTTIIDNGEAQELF

CC(C)(O/N=C(\C(=O)N[C@@H]1C(=O)N2C(C(=O)[O-])=C(C[N+]3(CCNC(=O)c4ccc(O)c(O)c4Cl)CCCC3)CS[C@H]12)c1csc(N)n1)C(=O)O [cefiderocol]
IC50 [1, 7]: 3.07 µM
IC50 [2, 8]: 5.05 µM
IC50 [3, 8]: 2.82 µM
IC50 ([4]; read-out: IC50 (μg/ml) / P. aeruginosa ATCC 27853 / Cefiderocol (converted)): 1.13 µM
IC50 [5, 7]: 0.891 µM
IC50 (μg/ml) / A. baumannii ATCC 17978 ^a / Cefiderocol [6]: 1.05 µg/mL (≈ 1.4 µM)

CC(C)(O/N=C(\C(=O)N[C@@H]1C(=O)N2C(C(=O)[O-])=C(C[n+]3ccccc3)CS[C@H]12)c1csc(N)n1)C(=O)O [ceftazidime]
IC50 ([1]; read-out: IC50 (μg/ml) / A. baumannii ATCC 17978 ^a / Ceftazidime): > 117 µM
IC50 [2, 9]: > 7.32 µM
IC50 [3, 9]: > 7.32 µM
IC50 ([4]; read-out: IC50 (μg/ml) / P. aeruginosa ATCC 27853 / Ceftazidime (converted)): 6.62 µM
IC50 ([5]; read-out: IC50 (μg/ml) / A. baumannii ATCC 17978 ^a / Ceftazidime (converted)): 3.26 µM
IC50 (μg/ml) / A. baumannii ATCC 17978 ^a / Ceftazidime [6]: 0.91 µg/mL (≈ 1.66 µM)
